The values below come from patent US5504084A, “Pharmaceutical for the treatment of skin disorders” (priority 1994, dated 1996).

For data set [1], the system named is Normal human epidermal keratinocytes (NHEK). Put plainly: Inhibition of NHEK proliferation, BrdU incorporation (in vitro DNA synthesis). In kind it is cell-based. The settings on record: 18-24 hours; for inhibition at 100 µM: 10^-4 M; for inhibition at 10 µM: 10^-5 M. The method, then: Cells: Normal human epidermal keratinocytes (NHEK, Clonetics Corp., San Diego, Calif.).
Labelling Reagent: Aqueous solution of 5-bromo-2'-deoxyuridine and 5-fluoro-2'-deoxyuridine (Amersham Corp., II).
Peroxidase-anti-mouse Immunoglobulin (Ig from pooled sheep antisera, Amersham Corp., II).
Peroxidase substrate: ABTS (2,2'-azino-di-(3-ethyl-benzthiazoline sulphonate)! Amersham Corp., II).
Compounds: Compounds are dissolved in absolute ethanol (final concentration≤0.1%). Various drug concentrations are prepared in thymidine free keratinocyte growth medium (KGM without hydrocortisone, Clonetics Corp., Calif.) in the presence of BrdU.
Dynatech MR 7000 microplate reader with 410 nm filter.
Keratinocytes are seeded into 96-well flat bottom (6.4 mm diameter) culture dishes at 5,000 cells/well. The cells are allowed to grow (2-3days) and then dosed with various concentrations of compounds prepared in KGM without thymidine, without hydrocortisone in the presence of BrdU (1:200). After 18-24 hours at 37° C., 5% CO2, the cells are washed with warm PBS and fixed with acetic acid/ethanol for 30 minutes at room temperature. After washing the wells with PBS/0.1% Tween-20, the remaining electrostatic sites on the polystyrene plates are blocked by 3% BSA in PBS/0.1% Tween-20. Anti-bromodeoxyuridine antibody solution with nuclease for denaturing DNA is added to each well and allowed to incubate for 2 hours at 37° C., 5% CO2. The plates were again washed with PBS/0.1% Tween-20 and then incubated at room temperature with peroxidase lined anti-mouse immunoglobulin (1:600). After washing off the second antibody, 1 mM ABTS substrate solution is added to all wells until the desired color intensity (green) is achieved. The color development is stopped by the addition of a Stopping Agent. The absorbance is then measured at 410 nm with a microplate reader using cells in wells not exposed to BrdU as blanks.
The intensity of the color reaction is proportional to the BrdU incorporated by proliferating cells. The amount of BrdU incorporated in treated cells in wells is compared to those of untreated controls as follows: [formula]

The conditions of data set [2]: European Patent 13,376; cited from earlier work.
The test system of another data set is psoriasis patients. The conditions noted are these: cited from earlier work.
The nature of data set [3]: Acute toxicity after intraperitoneal administration, NMRI mouse. The settings on record: in vivo, ip, 3 weeks, Litchfield and Wilcox. The method, then: The acute toxicity after intraperitoneal administration of the test substances was determined with NMRI mice (20 to 25 g) and SD rats (120 to 195 g). The test substance was suspended in a 1% strength sodium carboxymethylcellulose solution. The different dosages of the test substance were administered to the mice in a volume of 10 ml/kg of body weight and to the rats in a volume of 5 ml/kg of body weight. Per dosage, 10 animals were used. After 3 weeks, the acute toxicity was determined by the method of Litchfield and Wilcox.

As usually defined, the inhibition is the change of the read-out against control, counted positive when it falls. Read a low inhibition as a response near the control. By IC50 is commonly meant the concentration that gives 50% inhibition. Lower therefore signals greater potency. In data set [1], `Cc1oncc1C(=O)Nc1ccc(C(F)(F)F)cc1` [Compound 1, N-(4-trifluoromethylphenyl)-5-methylisoxazole-4-carboxamide] yielded an inhibition at 100 µM of 87%, an inhibition at 10 µM of 22% and an IC50 of 18 µM. The compound also had an inhibition at 1 µM in data set [1] (10^-6 M) of 12%. Also, the anti-inflammatory property result in data set [2] is given as “anti-inflammatory”.

As for cyclosporine A, in the data set on psoriasis patients (in vivo, po), the “most limiting side effect” value is given as “kidney dysfunction”; the side effects entry was “a number of side effects, most of which are transient and not serious”. Further, the “success rate in severe psoriasis” value with psoriasis patients (oral, patients with severe psoriasis) was “high success rate”.

What is called LD50 is the dose expected to kill half of the subjects tested. Read a low LD50 as a more toxic substance. In data set [1], `C/C(O)=C(\C#N)C(=O)Nc1ccc(C(F)(F)F)cc1` [Compound 2, N-(4-trifluoromethylphenyl)-2-cyano-3-hydroxycrotonamide] registered an inhibition at 100 µM of 84%, an inhibition at 10 µM of 49% and a 50% inhibitory concentration (IC50) of 15.5 µM. This compound returned an LD50 at 504 h in data set [3] of 150 mg/kg.
